# US10442767B2 (priority 2012, dated 2019)
# Tests used:
# Shaker K^+ channel = target: T1, Shaker K^+ channel (Drosophila melanogaster, UniProt P08510); assay: Inhibition of K+ currents, cut-open oocyte voltage clamp; format: cell-based, Xenopus oocytes
# T1 construct: injecting approximately 50 ng of WT Shaker cRNA (kit Ambion) into the oocytes; expressed in transfected cells; host or cells: Xenopus laevis oocytes (cRNA injection)
# Protocol: Using the cut-open oocyte voltage clamp studies to screen compounds to determine their potency towards Kv1 cannels was previously described in Starace and Bezanilla et al. (2004).
# For this experiment, Shaker K^+ channel from D. […] was chosen as the archetypical voltage gated K^+ channel that gives name to the family.
# Electrophysiology studies are conducted according to the protocol by Stefani and Bezanilla (1998). Briefly, K^+ channel Shaker cRNA is injected into Xenopus oocytes 24 h after their surgical extraction from adult frogs. 1-5 days after injection channel currents are recorded using the cut-open voltage-clamp.
# K^+ channel expression in Xenopus oocytes membranes was achieved by injecting approximately 50 ng of WT Shaker cRNA (kit Ambion) into the oocytes 24 h after surgical extraction from adult frogs and collagenase treatment. Injected oocytes were maintained in a standard oocytes solution (100 mM NaCl, 5 mM KCl, 2 mM CaCl2, and 10 mM Hepes at pH 7.5) at 16.5° C. and recordings were performed 1-3 days after injection.
# K^+ currents were recorded from oocytes expressing Shaker K^+ channels using the cut-open voltage clamp technique as described by Stefani and Bezanilla. The internal solution was 120 mM KOH, 20 mM HEPES-methyl sulfonate (MES) pH 7.4, 2 mM EGTA. The external solution was 12 mM KOH, 105 mM N-methyl-D-glucamine-MES pH 7.4, 20 mM HEPES, 2 mM CaOH. […] After application, cells were voltage-clamped at least 5 min at 0 mV, then voltage-clamped at −80 mV for 1-2 min. K^+ currents were generated by applying series of 50 ms pulses from −70 mV to +40 mV in increments of 10 mV. […] Analysis of the traces was done using an in-house software. The half-maximal inhibitory concentration (IC50) for each drug was calculated by plotting the relative K^+ current vs. concentration and fitted to the Hill equation using the software Origin.
# (§1) EC50=10^<log EC50>; where <log EC50>=average of log EC50 values from all experiments with the same drug. 95% C.I.=[Upper Limit . . . Lower Limit]; where U.L.=10^(log EC50+s.d.) and L.L.=10^(log EC50−s.d.). The half-life (t1/2) in the stability and pharmacokinetic experiments was calculated by fitting the data to the equation Ct=C0*exp(−k*t) where C0=initial concentration, Ct=concentration at time t, and k=ln 2/t1/2. Student t-test was used to compare results and P<0.05 was considered significant.
# [1] = Parallel Artificial Membrane Permeability Assay (PAMPA); format: in vitro ADME
# Protocol: In this experiment, the inventors included highly permeable verapamil and lowly permeable theophylline as controls.
# Permeability studies were performed as previously described by Sugano, et al., 2011. A 96-well microplate (acceptor compartment) was filled with PBS containing 5% DMSO. A hydrophobic filter plate (donor compartment) was placed atop the buffer-filled plate and the filter surface was impregnated with 5 μL solution of porcine polar brain lipids (Avanti Lipids) in dodecane (1% w/v). 150 μL of the test compounds dissolved in PBS containing 5% DMSO (compound concentration 0.5 mM) was added to the donor compartment and covered. The only barrier between the two compartments was the artificial BBB membrane containing the porcine polar brain lipids. The whole system was incubated for several hours.
# [2] = system: hypomyelinated optic nerves from Shiverer mice (shi^−/−); assay: Compound action potential (CAP) of dissected hypomyelinated optic nerve; format: cell-based, mouse; details: Mus musculus; hypomyelinated Shiverer optic nerve, 22 °C, Hill fit; read-out: half-maximal effective concentration (EC50) in enhancing the CAP
# Protocol: In order to determine if the drugs could also be effective in enhancing compound action potentials (CAP), the effects of these compounds on the CAP of hypomyelinated optic nerves from Shiverer mice (shi^−/−) and control mice (shi^+/−, shi^+/+) were tested. Shiverer mice lack compact myelin in the CNS due to a null mutation of the myelin basic protein gene (MBP).
# optic nerves were dissected from 12-16 week old Shiverer (shi^−/−) and control mice (shi^+/− and shi^+/+). Mice were euthanized by CO2 overdose and the optic nerves were quickly dissected between the eyeball and the optic chiasm. The nerves were incubated for 30 min at 37° C. in oxygenated (95% O2, 5% CO2) aCSF solution (126 mM NaCl, 3 mM KCl, 2 mM MgSO4, 26 mM NaHCO3, 2 mMCaCl2, 10 mM dextrose, pH 7.5) before the experiment.
# compound action potentials (CAP) from hypomyelinated nerves (Shiverer mice, shi^−/−) and myelinated nerves (litermate controls, shi^+/− and shi^+/+) were recorded using suction electrodes as described by Stys et al. Briefly, the dissected optic nerve was placed inside a chamber containing oxygenated (5% CO2, 95% O2) aCSF (300 μL) between two suction electrodes (stimulus and recording electrodes) forming a tight seal on each end. Two additional electrodes were placed in the bath for reference. A supramaximal pulse (250 mV, 20 μs) was applied at the stimulating end of the nerve. The resulting CAP was amplified from the recording electrode using a high impedance low-noise amplifier (EG&G Princeton Applied Research Corporation) and filtered and sampled at 10-100 kHz. […] After each measurement the chamber was washed for 5 min (flow 1 mL/min) with oxygenated aCSF. The study was conducted at 22.2±1.3° C. to allow for slower conduction and the temperature was monitored throughout the experiment. CAP recordings were acquired with a SBC6711 board (Innovative Integration) controlled by in-house written software. Analysis of the traces was done using an in-house software. The half-maximal effective concentration (EC50) for each drug was calculated by plotting the final over initial amplitude vs. concentration and fitted to the Hill equation using Origin.
# as §1, with “The Hill equation used to fit the data from the voltage-clamp and the optic nerve experiments was as follows: y=y0+(yf−y0)*x^n/(k^n+x^n); where n refers to the Hill coefficient (typically 1±0.1) and k refers to EC50 or IC50. y0 and yf refers to the origin and final ordinate values and were fixed at 1±0.1 or 0±0.1 depending on the experiment. EC50=10^<log” for “EC50=10^<log”
# T1 sequence (P08510 whole entry): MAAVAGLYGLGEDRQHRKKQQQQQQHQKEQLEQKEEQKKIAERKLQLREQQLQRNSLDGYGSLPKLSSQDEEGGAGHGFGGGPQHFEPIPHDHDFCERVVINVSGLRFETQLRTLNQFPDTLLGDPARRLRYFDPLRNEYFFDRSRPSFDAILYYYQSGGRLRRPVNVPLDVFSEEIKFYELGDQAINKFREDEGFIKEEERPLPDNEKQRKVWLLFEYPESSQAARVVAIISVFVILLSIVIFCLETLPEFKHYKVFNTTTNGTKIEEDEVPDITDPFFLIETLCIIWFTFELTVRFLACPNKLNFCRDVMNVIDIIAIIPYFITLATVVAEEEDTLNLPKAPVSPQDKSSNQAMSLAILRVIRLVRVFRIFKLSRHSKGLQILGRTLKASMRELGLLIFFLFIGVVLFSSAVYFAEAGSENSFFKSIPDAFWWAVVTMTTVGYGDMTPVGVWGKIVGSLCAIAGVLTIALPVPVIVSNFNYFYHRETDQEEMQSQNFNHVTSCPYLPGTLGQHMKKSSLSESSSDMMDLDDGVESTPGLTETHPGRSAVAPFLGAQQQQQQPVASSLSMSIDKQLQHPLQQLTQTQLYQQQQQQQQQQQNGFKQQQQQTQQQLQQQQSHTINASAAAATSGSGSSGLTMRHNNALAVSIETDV
smiles,measurement,setting,value
"Nc1ccncc1F [3-F-4-AP, 3-fluoro-4-aminopyridine]",affinity for K^+ channels compared with 4-AP,Shaker K^+ channel; cut-open oocyte voltage clamp (Example 2),very similar affinity to 4-AP
same,IC50,"Shaker K^+ channel; relative K+ current at +20 mV, Xenopus oocytes, Hill fit, read-out: half-maximal inhibitory concentration (IC50)",250 µM
same,times more permeable than 4-AP,[1],6.6 times
same,Pe: permeability coefficient across artificial membrane,"[1]; porcine polar brain lipids, 0.5 mM, 16 h, n=3",15.6 ± 0.6 nm/s
same,EC50,[2],96 µM
